Read-outs that look alike come from different tables or passages of the source.

The test system of assay [1] is HCV genotype 1a (H77 strain) replicon in HUH-7 cells. Description: HCV replicon luciferase reporter assay, genotype 1a. The format is cell-based. Particulars: Hepatitis C virus, Huh-7, 72 h, 3 days incubation, read-out: LE_1a (EC50, range). An outline of the steps:
(§1)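 Replicon inhibition for both genotypes was measured as Renilla luciferase signal (EnduRen, 7.5 μM final, 2 h) after 3-day, 37° C exposure of replicon-bearing HUH-7 cells in 4% FCS DMEM, 0.5% DMSO. The 1b construct carries S1179I; the 1a H77 construct carries P1496L and S2204I. Twenty-point, 3-fold dilutions were fitted four-parametrically for EC50, and CC50 was taken from multiplexed Cell Titer-Blue.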

Assay [2] deals with HCV genotype 1b (Con1) replicon in HUH-7 cells. The assay is described as follows: HCV replicon luciferase reporter assay, genotype 1b. The assay is classed as cell-based. Conditions: Hepatitis C virus, Huh-7, 72 h, 3 days incubation, read-out: LE_1b (EC50, range). An outline of the steps: as §1
In general terms: In antiviral work, replicon cells carry a viral genome segment that copies itself.

[3] abbreviates: HCV genotype 1a replicon luciferase assay, range class.
Where [4] appears, read: HCV genotype 1b replicon luciferase assay, range class.
[5] abbreviates: GETYPE1A, HCV genotype 1a replicon luciferase assay, range class.
[6] abbreviates: GETYPE1B, HCV genotype 1b replicon luciferase assay, range class.
Setting [7] is: GETYPE1A, HCV genotype 1a replicon luciferase.
[8] abbreviates: GETYPE1B, HCV genotype 1b replicon luciferase.

In general, EC50 refers to the concentration that produces a half-maximal response. Consider `COc1ccc2c(O[C@@H]3C[C@H]4C(=O)N[C@]5(C(=O)NS(=O)(=O)C6(CF)CC6)C[C@H]5/C=C\CC[C@@H](C)C[C@@H](C)[C@H](NC(=O)OC(C)(C)C(C)(F)F)C(=O)N4C3)nc(C(F)(F)F)cc2c1` [Compound 1171, 3,3-difluoro-2-methylbutan-2-yl((2R,6S,7R,9R,13aS,14aR,16aS,Z)-14a-(((1-(fluoromethyl)cyclopropyl)sulfonyl)carbamoyl)-2-((6-methoxy-3-(trifluoromethyl)isoquinolin-1-yl)oxy)-7,9-dimethyl-5,16-dioxo-1,2,3,5,6,7,8,9,10,11,13a,14,14a,15,16,16a-hexadecahydrocyclopropa[e]pyrrolo[1,2-a][1,4]diazacyclopentadecin-6-yl)carbamate], for which the EC50 in assay [1] (setting [3]) and in assay [2] (setting [4]) was less than 5.46 nM in each case.
`COc1ccc2c(O[C@@H]3C[C@H]4C(=O)N[C@]5(C(=O)NS(=O)(=O)C6(CF)CC6)C[C@H]5/C=C\CC[C@H](C)C[C@@H](C)[C@H](NC(=O)OC5(C(F)(F)F)CCCOC5)C(=O)N4C3)nc(C(F)(F)F)cc2c1` (stereo partly drawn) [Compound 1172, 3-(trifluoromethyl)tetrahydro-2H-pyran-3-yl((2R,6S,7R,9S,13aS,14aR,16aS,Z)-14a-(((1-(fluoromethyl)cyclopropyl)sulfonyl)carbamoyl)-2-((6-methoxy-3-(trifluoromethyl)isoquinolin-1-yl)oxy)-7,9-dimethyl-5,16-dioxo-1,2,3,5,6,7,8,9,10,11,13a,14,14a,15,16,16a-hexadecahydrocyclopropa[e]pyrrolo[1,2-a][1,4]diazacyclopentadecin-6-yl)carbamate]: the EC50 in assay [1] (setting [3]) is greater than 87.4 nM; in assay [2] (setting [4]), 4.82 to 103 nM.
In the case of `COc1ccc2c(O[C@@H]3C[C@H]4C(=O)N[C@]5(C(=O)NS(=O)(=O)C6(CF)CC6)C[C@H]5/C=C\CC[C@@H](C)C[C@@H](C)[C@H](NC(=O)OC5(C(F)(F)F)CCCOC5)C(=O)N4C3)nc(C(F)(F)F)cc2c1` (stereo partly drawn) [Compound 1173, 3-(trifluoromethyl)tetrahydro-2H-pyran-3-yl((2R,6S,7R,9R,13aS,14aR,16aS,Z)-14a-(((1-(fluoromethyl)cyclopropyl)sulfonyl)carbamoyl)-2-((6-methoxy-3-(trifluoromethyl)isoquinolin-1-yl)oxy)-7,9-dimethyl-5,16-dioxo-1,2,3,5,6,7,8,9,10,11,13a,14,14a,15,16,16a-hexadecahydrocyclopropa[e]pyrrolo[1,2-a][1,4]diazacyclopentadecin-6-yl)carbamate], the EC50 in assay [1] (setting [3]) and in assay [2] (setting [4]) was less than 5.46 nM in each case.
As for `COc1ccc2c(O[C@@H]3C[C@H]4C(=O)N[C@]5(C(=O)NS(=O)(=O)C6(CF)CC6)C[C@H]5/C=C\CC[C@H](C)C[C@@H](C)[C@H](NC(=O)OC(C)(C)C(F)(F)F)C(=O)N4C3)ncc(C(F)(F)F)c2c1` [Compound 1174, 1,1,1-trifluoro-2-methylpropan-2-yl((2R,6S,7R,9S,13aS,14aR,16aS,Z)-14a-(((1-(fluoromethyl)cyclopropyl)sulfonyl)carbamoyl)-2-((6-methoxy-4-(trifluoromethyl)isoquinolin-1-yl)oxy)-7,9-dimethyl-5,16-dioxo-1,2,3,5,6,7,8,9,10,11,13a,14,14a,15,16,16a-hexadecahydrocyclopropa[e]pyrrolo[1,2-a][1,4]diazacyclopentadecin-6-yl)carbamate], the EC50 in assay [1] (setting [3]) and in assay [2] (setting [4]) was 4.82 to 103 nM each time.
Turning to `COc1ccc2c(O[C@@H]3C[C@H]4C(=O)N[C@]5(C(=O)NS(=O)(=O)C6(CF)CC6)C[C@H]5/C=C\CC[C@@H](C)C[C@@H](C)[C@H](NC(=O)OC(C)(C)C(F)(F)F)C(=O)N4C3)ncc(C(F)(F)F)c2c1` [Compound 1175, 1,1,1-trifluoro-2-methylpropan-2-yl((2R,6S,7R,9R,13aS,14aR,16aS,Z)-14a-(((1-(fluoromethyl)cyclopropyl)sulfonyl)carbamoyl)-2-((6-methoxy-4-(trifluoromethyl)isoquinolin-1-yl)oxy)-7,9-dimethyl-5,16-dioxo-1,2,3,5,6,7,8,9,10,11,13a,14,14a,15,16,16a-hexadecahydrocyclopropa[e]pyrrolo[1,2-a][1,4]diazacyclopentadecin-6-yl)carbamate], the EC50 in assay [1] (setting [3]) and in assay [2] (setting [4]) was less than 5.46 nM each time.
For the molecule `COc1ccc2c(O[C@@H]3C[C@H]4C(=O)N[C@]5(C(=O)NS(=O)(=O)C6(CF)CC6)C[C@H]5/C=C\CC[C@H](C)C[C@@H](C)[C@H](NC(=O)OC5(C(F)(F)F)CCCOC5)C(=O)N4C3)ncc(C(F)(F)F)c2c1` (stereo partly drawn) [Compound 1176, 3-(trifluoromethyl)tetrahydro-2H-pyran-3-yl((2R,6S,7R,9S,13aS,14aR,16aS,Z)-14a-(((1-(fluoromethyl)cyclopropyl)sulfonyl)carbamoyl)-2-((6-methoxy-4-(trifluoromethyl)isoquinolin-1-yl)oxy)-7,9-dimethyl-5,16-dioxo-1,2,3,5,6,7,8,9,10,11,13a,14,14a,15,16,16a-hexadecahydrocyclopropa[e]pyrrolo[1,2-a][1,4]diazacyclopentadecin-6-yl)carbamate], the EC50 in assay [1] (setting [3]) and in assay [2] (setting [4]) was 4.82 to 103 nM each time.
For `COc1ccc2c(O[C@@H]3C[C@H]4C(=O)N[C@]5(C(=O)NS(=O)(=O)C6(CF)CC6)C[C@H]5/C=C\CC[C@@H](C)C[C@@H](C)[C@H](NC(=O)OC5(C(F)(F)F)CCCOC5)C(=O)N4C3)ncc(C(F)(F)F)c2c1` (stereo partly drawn) [Compound 1177, 3-(trifluoromethyl)tetrahydro-2H-pyran-3-yl((2R,6S,7R,9R,13aS,14aR,16aS,Z)-14a-(((1-(fluoromethyl)cyclopropyl)sulfonyl)carbamoyl)-2-((6-methoxy-4-(trifluoromethyl)isoquinolin-1-yl)oxy)-7,9-dimethyl-5,16-dioxo-1,2,3,5,6,7,8,9,10,11,13a,14,14a,15,16,16a-hexadecahydrocyclopropa[e]pyrrolo[1,2-a][1,4]diazacyclopentadecin-6-yl)carbamate], the EC50 in assay [1] (setting [3]) and in assay [2] (setting [4]) was less than 5.46 nM in each case.
For `CC[C@@H]1C[C@@H](C)CC/C=C\[C@@H]2C[C@@]2(C(=O)NS(=O)(=O)C2(C)CC2)NC(=O)[C@@H]2C[C@@H](Oc3nc(OC)cc4cc(OC)ccc34)CN2C(=O)[C@H]1NC(=O)OC1(C(F)(F)F)CCCOC1` (stereo partly drawn) [Compound 1178, 3-(trifluoromethyl)tetrahydro-2H-pyran-3-yl((2R,6S,7R,9S,13aS,14aR,16aS,Z)-2-((3,6-dimethoxyisoquinolin-1-yl)oxy)-7-ethyl-9-methyl-14a-(((1-methylcyclopropyl)sulfonyl)carbamoyl)-5,16-dioxo-1,2,3,5,6,7,8,9,10,11,13a,14,14a,15,16,16a-hexadecahydrocyclopropa[e]pyrrolo[1,2-a][1,4]diazacyclopentadecin-6-yl)carbamate], the concentration for a half-maximal effect (EC50) in assay [1] (setting [3]) and in assay [2] (setting [4]) was less than 5.46 nM throughout.
On to `COc1ccc2c(O[C@@H]3C[C@H]4C(=O)N[C@]5(C(=O)NS(=O)(=O)C6(C(F)F)CC6)C[C@H]5/C=C\CC[C@@H](C)C[C@@H](C)[C@H](NC(=O)OC(C)(C)C)C(=O)N4C3)nc(OC)cc2c1` [Compound 1180, tert-butyl ((2R,6S,7R,9R,13aS,14aR,16aS,Z)-14a-(((1-(difluoromethyl)cyclopropyl)sulfonyl)carbamoyl)-2-((3,6-dimethoxyisoquinolin-1-yl)oxy)-7,9-dimethyl-5,16-dioxo-1,2,3,5,6,7,8,9,10,11,13a,14,14a,15,16,16a-hexadecahydrocyclopropa[e]pyrrolo[1,2-a][1,4]diazacyclopentadecin-6-yl)carbamate], for which the EC50 in assay [1] (setting [3]) and in assay [2] (setting [4]) was less than 5.46 nM in each case.
As to `COc1ccc2c(O[C@@H]3C[C@H]4C(=O)N[C@]5(C(=O)NS(=O)(=O)C6(C(F)F)CC6)C[C@H]5/C=C\CC[C@@H](C)C[C@@H](C)[C@H](NC(=O)OC(C)(C)C(F)(F)F)C(=O)N4C3)nc(OC)cc2c1` [Compound 1181], the concentration for a half-maximal effect (EC50) in assay [1] (setting [5]) and in assay [2] (setting [6]) was less than 5.46 nM in each case.
Regarding `COc1ccc2c(O[C@@H]3C[C@H]4C(=O)N[C@]5(C(=O)NS(=O)(=O)C6(C(F)F)CC6)C[C@H]5/C=C\CC[C@@H](C)C[C@@H](C)[C@H](NC(=O)OC(C)(C)C(C)(F)F)C(=O)N4C3)nc(OC)cc2c1` [Compound 1182], the EC50 in assay [1] (setting [5]) and in assay [2] (setting [6]) was less than 5.46 nM in each case.
Regarding `COc1ccc2c(O[C@@H]3C[C@H]4C(=O)N[C@]5(C(=O)NS(=O)(=O)C6(CF)CC6)C[C@H]5/C=C\CC[C@@H](C)C[C@@H](C)[C@H](NC(=O)O[C@@]5(C(F)(F)F)CCCOC5)C(=O)N4C3)nc(-c3ccc(OC(C)C)cc3)cc2c1` [Compound 1183], the concentration giving a half-maximal response (EC50) in assay [1] (setting [7]) and in assay [2] (setting [8]) was 1.01 to 5 nM throughout.
For the molecule `COc1ccc2c(O[C@@H]3C[C@H]4C(=O)N[C@]5(C(=O)NS(=O)(=O)C6(CF)CC6)C[C@H]5/C=C\CC[C@@H](C)C[C@@H](C)[C@H](NC(=O)O[C@]5(C(F)(F)F)CCCOC5)C(=O)N4C3)nc(-c3ccc(OC(C)C)cc3)cc2c1` [Compound 1184], the EC50 in assay [1] (setting [7]) and in assay [2] (setting [8]) was 1.01 to 5 nM each time.

(Values after patent US9499550B2 (BRISTOL-MYERS SQUIBB COMPANY, priority 2012, dated 2016).)
